Experimental data published in US11433143B2, “Nano-enabled immunotherapy in cancer” (The Regents of the University of California, priority 2017, dated 2022).
Blank lines part the entries; values can stand above or below the molecule they belong to.

Legend:
4T1 cells [1] = assay: ICD screening of chemo agents in 4T1 cells (CRT expression, HMGB1 release); type: cell-based, mouse; settings: multi-parameter cellular screening
Description: One possible approach is to use chemotherapy to induce immunogenic cell death or ICD.

[2] = system: KPC pancreatic cancer cells; assay: Induction of ICD marker CRT (flow cytometry) and HMGB1 release (ELISA) in cultured KPC pancreatic cancer cells; type: cell-based, mouse; settings: 24 h; for induction of the ICD marker CRT: DOX 20 μM, OX 500 μM, activated DOX (DACHPt) 500 μM, flow cytometry; for HMGB1 release: ELISA
Description: (§1) FIG. 6. Panel A) Flow cytometry experiment showing the induction of the ICD marker, CRT, in cultured KPC pancreatic cancer cells in the presence of PBS, DOX (20 μM), OX (500 μM), and activated DOX (a.k.a. DACHPt, 500 μM) for 24 h. HMBG1 release was measured using ELISA. Panel B) Animal experimentation using 2 rounds of vaccination one week apart, followed by injecting live KPC cells SC on the contralateral side. The details of the animal vaccination experiment are provided in the methods section. Tumors were collected on day 26 for size measurement and IHC analysis. Panel C) Tumor size measurement on the contralateral side. Panel D) Explanted tumor at the contralateral side. Panel E) Spaghetti curves to show KPC tumor growth in the contralateral flank. Panel F) Tumor collection was performed after euthanizing the animal to conduct IHC. IHC staining of CD8 and Foxp3 T cells was used to calculate CD8/FoxP3 T cells ratio in each group. *p<0.05; **p<0.01
ICD is a modified form of apoptosis that can be used to initiate an effective immune response against endogenous tumor antigens (Kroemer et al. (2013) Ann. Rev. Immunol., 31: 51-72).^1 Since this model was 1st proposed against the backdrop of a select number of cancer drugs (Id.), we focused on the use of OX, because it is FDA-approved for PDAC treatment. As a component of the FOLFIRINOX regimen (in combination with irinotecan, 5-FU and folinic acid). For comparison, we also included the anthracycline antibiotic, DOX, as a positive control and cisplatin (Cis) as a negative control for the screening of PDAC cell lines, using cell surface CRT expression (Obeid et al. (2017) Nat. Med., 13(1): 54-61; Casares et al. (2005) J. Exp. Med. 202(12): 1691-1701; Fucikova et al. (2011) Canc. Res. 71(14): 4821-4833; Tesniere et al. (2010) Oncogene, 29(4): 482-491; Galluzzi et al. (2012) Oncogene, 31(15): 1869-1883; Martins et al. (2011) Oncogene, 30(10): 1147-1158). CRT is an endoplasmic reticulum (ER) stress protein that translocates to the surface membrane of cancer cells undergoing ICD (Obeid et al. (2017) Nat. Med., 13(1): 54-61; Fucikova et al. (2011) Canc. Res. 71(14): 4821-4833). Screening for CRT expression was performed in murine KPC cells, derived from a spontaneous tumor that developed in a transgenic Kras^LSL-G12D/+/Trp53^LSL-R172H/+/Pdx-1-Cre (KPC) mouse (Hingorani et al. (2005) Cancer cell, 7(5): 469-483).
The KPC model recapitulates many of disease features of human PDAC, including oncogene expression, development of a robust cancer stroma, extensive local invasion and distant metastases (Tones et al. (2013) PloS one, 8(11): e80580; Tseng et al. (2010) Clin. Canc. Res. 16(14): 3684-3695). DOX and OX and activated DOX induced the ICD marker CRT in cultured KPC pancreatic cancer cells (FIG. 6, panel A). […]

KPC tumor = assay: Vaccination with drug-treated dying KPC cells, live KPC challenge on contralateral side; type: in vivo, mouse; settings: for KPC tumor growth in the contralateral flank (spaghetti curves) / KPC tumor size on the contralateral side: 2 rounds of vaccination one week apart; for KPC tumor size on the contralateral side: tumors collected on day 26
Description: as §1, with “Panel A) Flow cytometry experiment showing the induction of the ICD marker, CRT, in cultured KPC pancreatic cancer cells in the presence of PBS, DOX (20 μM), OX (500 μM), and activated DOX (a.k.a.” left out, “IHC.” for “IHC. IHC staining of CD8 and Foxp3 T cells was used to calculate CD8/FoxP3 T cells ratio in each group. *p<0.05; **p<0.01”
Animal experiments were performed using two rounds of vaccination one week apart, followed by injecting live KPC cells SC on the contralateral side (FIG. 6, panel B). Tumors were collected on day 26 for size measurement and IHC analysis.
Tumor collection was performed after euthanizing the animals to conduct IHC. IHC staining of CD8 and Foxp3 T cells was used to calculate CD8/FoxP3 T cell ratio in each group (see, e.g., FIG. 6, panel F).

[3] = cited from earlier work
Solubility and log P = type: physicochemical
[4] = PK characteristics of free IND; settings: in vivo
mTOR signaling = assay: Western blot of mTOR signaling (P-S6K phosphorylation) in 4T1 cells in tryptophan-deficient DMEM; type: cell-based, mouse; settings: 3 h, vs free IND
[5] = Determination of MTD doses in normal mice; settings: mouse, in vivo, single IV administration
Description: FIG. 26. Panel A) Determination of MTD doses for free MTX and liposomal MTX in normal mice. MTD doses for free MTX and liposomal MTX were 3 and 15 mg/kg for single IV administration. Due to the high MTD of liposomal MTX, we tested the efficacy of the MTX liposome at low dose (1 mg/Kg×3 times) and high dose (3 mg/Kg×3 times). Panel B) Pilot tumor size measurement in 4T1 orthotopic tumor-bearing mice (n=6) receiving IV free drug or MTX-only liposome. For free drug treatment, we have included 2 two schedules namely single IV at 3 mg/kg at Day 8 or IV injections at 1 mg/kg at Day 8, 11 and 14. Since MTX liposome has a 5× higher MTD dose, the tumor mice received single IV at 3 mg/kg at Day 8 or IV injections at Day 8, 11 and 14.

4T1 cells [6] = assay: CRT induction by liposomes in 4T1 cells (flow cytometry)
Description: Panel B) All the particles were fully characterized abiotically and biotically.

Molecule: COc1cccc2c1C(=O)c1c(O)c3c(c(O)c1C2=O)C[C@@](O)(C(=O)CO)C[C@@H]3O[C@H]1C[C@H](N)[C@H](O)[C@H](C)O1 [DOX, doxorubicin]
ICD induction (calreticulin expression, release of HMGB1) (4T1 cells [1]): can induce | induction of the ICD marker CRT [2]: induced | HMGB1 release [2]: increased | KPC tumor growth in the contralateral flank (spaghetti curves) (KPC tumor): decrease | KPC tumor size on the contralateral side (KPC tumor): significant reduction

Molecule: NS(=O)(=O)NCCNc1nonc1C(=NO)Nc1ccc(F)c(Br)c1 [epacadostat]
solubility in ethanol [3]: > 20 mg/mL

Molecule: O=C1[O][Pt]2([NH][C@@H]3CCCC[C@H]3[NH]2)[O]C1=O [OX, oxaliplatin]
induction of the ICD marker CRT [2]: induced | HMGB1 release [2]: increased | KPC tumor growth in the contralateral flank (spaghetti curves) (KPC tumor): decrease | KPC tumor size on the contralateral side (KPC tumor): significant reduction | CD8+/Foxp3+ ratio (KPC tumor; local and systemic tumor sites): capable of increasing

water solubility (Solubility and log P): relatively water insoluble | PK characteristics [4]: unfavorable PK characteristics
Molecule: Cn1cc(C[C@@H](N)C(=O)O)c2ccccc21 [Free IND, 1-methyl-D-tryptophan]

Molecule: 16:0 LysoPC-indoximod [IND-PL]
effect on mTOR signaling (phosphorylation of P-S6K) (mTOR signaling): enhanced effect

Molecule: N.N.[Cl][Pt][Cl] [cisplatin]
ICD induction (calreticulin expression, release of HMGB1) (4T1 cells [1]): failed to induce the same effect

Molecule: CC(=O)O[C@H]1C(=O)[C@@]2(C)[C@H]([C@H](OC(=O)c3ccccc3)[C@]3(O)C[C@H](OC(=O)[C@H](O)[C@@H](NC(=O)c4ccccc4)c4ccccc4)C(C)=C1C3(C)C)[C@]1(OC(C)=O)CO[C@@H]1C[C@@H]2O [paclitaxel]
ICD induction (calreticulin expression, release of HMGB1) (4T1 cells [1]): ICD inducer

Molecule: O=C1c2c(O)ccc(O)c2C(=O)c2c(NCCNCCO)ccc(NCCNCCO)c21 [MTX, mitoxantrone]
ICD induction (calreticulin expression, release of HMGB1) (4T1 cells [1]): can induce | MTD [5]: 3 mg/kg | CRT induction / ICD response in 4T1 cells (FIG. 31 panel B) (4T1 cells [6]): generation of an ICD response

Molecule: O=c1[nH]cc(F)c(=O)[nH]1 [5-FU, 5-fluorouracil]
ICD induction (calreticulin expression, release of HMGB1) (4T1 cells [1]): failed to induce the same effect
